Patent US20070213411A1, “Dispersions And Methods Of Preparing Them” (The Australian National University, priority 2003, published 2007)

Key:
[1] = cited from earlier work; for Surface tension: against air; for Interfacial tension: against water
[2] = Theoretical water droplet contact angle on the oil surface (Young's wetting equation); format: physicochemical; details: calculated by Young's wetting equation
Method: This can be attributed to the fact that the more soluble oils undergo Ostwald ripening, allowing rapid oil droplet growth. The more hydrophobic an oil the better it is for use in methods described herein as Ostwald ripening cannot occur. A degree of hydrophobicity can be estimated by applying the Young's wetting equation to a theoretical liquid/liquid drop profile. A theoretical water droplet contact angle on the oil surface can be calculated, and if this angle is higher than about 80°, preferably higher than 90° then the oil is sufficiently hydrophobic. For example, for dodecane, the theoretical droplet contact angle is 110°. However, it should be noted that selection of a suitable carrier liquid or oil according to theoretical contact angles is a guide only and that liquids or oils having a theoretical contact angle of about 80° are not necessarily less preferred than those having a higher theoretical contact angle.

[3] = Dispersion in water and its stability after vigorous shaking, de-gassed versus gassed (turbidity, visual); format: physicochemical; details: for time the dispersion is maintained / stable: de-gassed mixture in water after vigorous shaking, no added dispersants; for quality of dispersion in water (turbidity / visual): de-gassed; for quality of dispersion in water (turbidity / visual) / quality of dispersion in water (visual): after vigorous shaking; for quality of dispersion in water (visual): gassed
Method: (§1) The enhancement of oil droplet dispersion in water is most easily monitored using turbidity measurements. This enhancement can be measured by the difference between the new system (degassed) and the gassed blank, following vigorous shaking. […] Turbidity is a measure of how many droplets are dispersed in a given phase and is measured in NTU (nephelometric turbidity units) and in the results presented here is measured by light scattering. To give an understanding of the magnitude of these turbidity values, distilled water has a turbidity of 0.02 NTU, while tap water has a value of 1-2 NTU. Although useful, NTU measurements are of limited value and the results can be inaccurate if the refractive index of the dispersed phase is close to that of the dispersing phase (such as with perfluorocarbons in water) and so in some cases dynamic light scattering (DLS) has been used to obtain the droplet size distribution, as well as the charge on the oil droplets. However, careful interpretation of the DLS results is required for poly-disperse samples. Mono-disperse samples show size distribution by volume graphs (see later) over similar size ranges to the Z-average (diameter) and have a small PDI value (poly-dispersity index). The magnitude of the PDI is a measure of poly-dispersity. For poly-disperse samples the Z-average is the best estimate of average droplet size.
(§2) Mixtures of oil and water were de-gassed by a process of repeated freezing in liquid nitrogen, followed by pumping down to a pressure of 0.01 mbar and then melting in a sealed tube. The dissolved gas produced on each melting cycle was removed on re-freezing. Although this process was carried out five times, typically no further de-gassing on melting was observed after 3-4 cycles. […] (It should be noted that membrane separators and vacuum towers are used to de-gas liquids commercially.)
(§3) Dispersion of oil in water was achieved by vigorous shaking of the mixture for 8 sec in a sealed Pyrex tube. Turbidity was measured using an HF Scientific Micro 100 Turbidimeter. Particle sizes and zeta potentials were measured using a Malvern Zetasizer.

[4] = Droplet size distribution of oil-in-water dispersions by dynamic light scattering (Malvern Zetasizer); format: physicochemical; details: 0.2 ml/25 ml water
Method: as §1, §2, §3

[5] = Zeta potential of oil droplets (Malvern Zetasizer); format: physicochemical; details: de-gassed mixture in water
Method: as §2, §3

| Theoretical contact angle (water droplet on oil surface) [2] | time the dispersion is maintained / stable [3] | SMILES | Surface tension [1] | Interfacial tension [1] | quality of dispersion in water (turbidity / visual) [3] | other results |
| --- | --- | --- | --- | --- | --- | --- |
| 111° ^ | many hours | FC(F)(F)C(F)(F)C(F)(F)C(F)(F)C(F)(F)C(F)(F)F [C6F14, perfluorohexane] | 11.91 mN/m | 38 mN/m | readily dispersed | time to phase separation after vigorous shaking ([3]; gassed mixture, 0.2 ml/25 ml water): less than a minute |
| 113° | many hours | FC(F)(F)C(F)(F)C(F)(F)C(F)(F)C(F)(F)C(F)(F)C(F)(F)C(F)(F)Br [Perflubron, perfluorooctyl bromide] | 18 mN/m | 47 mN/m | enhanced dispersion due to de-gassing is observed | average droplet diameter ([4]; de-gassed, 1 hour after vigorous shaking): about 0.6 microns; PDI (poly-dispersity index) ([4]; de-gassed, at one hour): 0.430; Z-average size ([4]; de-gassed, at one hour): 599.6 nm; droplet size of size graph (Diam) ([4]; de-gassed, at one hour): 437.6 nm; PDI (poly-dispersity index) ([4]; gassed, after 1 hour): 0.674; Z-average size ([4]; gassed, at one hour): 1176 nm; zeta potential of droplets [5]: −42 mV |
| 110 ° | – | CCCCCCCCCCCC [dodecane, reference compound] | – | – | – | – |

Further lines, the compound ahead of its results:

| SMILES | Theoretical contact angle (water droplet on oil surface) [2] | time the dispersion is maintained / stable [3] | Surface tension [1] | Interfacial tension [1] | quality of dispersion in water (turbidity / visual) [3] | other results |
| --- | --- | --- | --- | --- | --- | --- |
| FC(F)(F)C(F)(F)C(F)(F)C(F)(F)C(F)(F)C(F)(F)C(F)(F)F [C7F16, perfluoroheptane] | 112°^ | – | 12.85 mN/m | 39.7 mN/m | – | – |
| FC(F)(F)C(F)(F)C(F)(F)C(F)(F)C(F)(F)C(F)(F)C(F)(F)C(F)(F)F [C8F18, perfluorooctane] | 113° ^ | – | 14.00 mN/m | 42 mN/m | – | – |
| CC(C)c1cccc(C(C)C)c1O [Propofol, 2,6-diisopropyl phenol] | – | many hours | – | – | complete dispersion of the oil | effect of added salt on the dispersion ([3]; de-gassed dispersion exposed to high salt levels, above those found in human blood): unaffected by the addition of salt; quality of dispersion in water (visual) [3]: many large, visible droplets of the oil |
| COC1=CC(=O)C[C@@H](C)[C@]12Oc1c(Cl)c(OC)cc(OC)c1C2=O [griseofulvin] | – | – | – | – | clearly well dispersed | turbidity after dispersion by vigorous shaking ([3]; 0.05 g dissolved in 10 ml soybean oil, 0.2 ml of this dispersed in 25 ml water): the same as those obtained for soybean oil alone; quality of dispersion in water (visual) [3]: solid clumps and a more transparent solution |
